Common to all, as to assay: relative viability (nuclei count vs DMSO), 5 days (fraction); higher = more cells survive
Compound in the experiment “Ruxolitinib + Dasatinib”: N#CC[C@H](C1CCCC1)n1cc(-c2ncnc3[nH]ccc23)cn1 [Ruxolitinib] + Cc1nc(Nc2ncc(C(=O)Nc3c(C)cccc3Cl)s2)cc(N2CCN(CCO)CC2)n1 [Dasatinib] (partner 0.075 µM)
The method, boiled down:
(§1)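 Cells from lung cancer lines were seeded into 1536-well plates and, one day later, dosed by pin tool. Treatments were either a single drug or a fixed dose of an anchor drug with five library-drug doses (not always all listed) in √10 steps. After 5 days, nuclei were stained in a one-step fixation (final 0.05% Triton X-100, 1% formaldehyde, 1 ug/ml Hoechst) and counted on 4× images, and relative viability is the treated-to-vehicle nuclei ratio, as the median of duplicate plates.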

Compound in experiment [1]: N#CC[C@H](C1CCCC1)n1cc(-c2ncnc3[nH]ccc23)cn1 [Ruxolitinib] + CC(=O)c1c(C)c2cnc(Nc3ccc(N4CCNCC4)cn3)nc2n(C2CCCC2)c1=O [Palbociclib] (partner 0.5 µM)
Put shortly: as §1

Compound in the experiment “VE-821 + Pemetrexed”: CS(=O)(=O)c1ccc(-c2cnc(N)c(C(=O)Nc3ccccc3)n2)cc1 [VE-821] + Nc1nc2[nH]cc(CCc3ccc(C(=O)N[C@@H](CCC(=O)O)C(=O)O)cc3)c2c(=O)[nH]1 [Pemetrexed] (partner 0.2 µM)
Put shortly: as §1

Compound in the experiment “Ruxolitinib + Pemetrexed”: N#CC[C@H](C1CCCC1)n1cc(-c2ncnc3[nH]ccc23)cn1 [Ruxolitinib] + Nc1nc2[nH]cc(CCc3ccc(C(=O)N[C@@H](CCC(=O)O)C(=O)O)cc3)c2c(=O)[nH]1 [Pemetrexed] (partner 0.2 µM)
Put shortly: as §1

Turning to UMC-11, the relative viability with Ruxolitinib + Dasatinib (first compound 0.08 µM) was 0.437; in the experiment with Ruxolitinib + Dasatinib (first compound 0.253 µM), 0.492; with Ruxolitinib + Dasatinib (first compound 0.8 µM) it was 0.524; with Ruxolitinib + Dasatinib (first compound 2.53 µM) it was 0.508; with Ruxolitinib + Dasatinib (first compound 8 µM), 0.512; in experiment [1] (first compound 0.08 µM) it was 0.345. Moreover, the relative viability in experiment [1] (first compound 0.253 µM) stood at 0.399; in experiment [1] (first compound 0.8 µM), 0.329; in experiment [1] (first compound 2.53 µM) it was 0.366; in experiment [1] (first compound 8 µM), 0.362; with VE-821 + Pemetrexed (first compound 0.08 µM), 0.818; in the experiment with VE-821 + Pemetrexed (first compound 0.253 µM) it was 0.718. In addition, the relative viability in the experiment with VE-821 + Pemetrexed (first compound 0.8 µM) turned out to be 0.728; in the experiment with VE-821 + Pemetrexed (first compound 2.53 µM) it was 0.513; with VE-821 + Pemetrexed (first compound 8 µM) it was 0.266; with Ruxolitinib + Pemetrexed (first compound 0.08 µM) it was 0.795; with Ruxolitinib + Pemetrexed (first compound 0.253 µM), 0.777; with Ruxolitinib + Pemetrexed (first compound 0.8 µM) it was 0.757. For the same cell line, the relative viability with Ruxolitinib + Pemetrexed (first compound 2.53 µM) stood at 0.924; with Ruxolitinib + Pemetrexed (first compound 8 µM) it was 0.786.

The values above are taken from the supplement of paper PMC10307832.
